# In patent EP2386565A2, “Compounds and methods to inhibit or augment an inflammatory response” (Cambridge Enterprise Ltd., priority 1999, dated 2000):
# Positions of bridges follow the written chain, without caps; N, C: chain ends. Non-standard residues stand in square brackets, D forms with d. Residues, ends and D or L forms follow the SMILES beside them.
# Columns and labels:
# [1] = system: lung cells of normal mice; assay: Cell number and cell type in the lungs of normal mice; assay type: in vivo
# Procedure: To determine whether increasing doses of CRD-Leu4Ile11Cys13 peptide 3(3-12)[MCP-1] alters the cell number and type of cell within the lungs of normal mice, mice were injected intravenously, intravenously and intratracheally, or intratracheally alone with CRD-Leu4Ile11Cys13 peptide 3(3-12)[MCP-1]. Mice were sacrificed at 20-24 hours post injection. Lungs were collected for isolation of cells, which were subsequently counted and characterized by surface staining for CD3, CD4, CD8, B220, and Mac-1.
# focal ischemic lesion = assay: Intraluminal thread model of ischaemia reperfusion injury (MCAo 90 minutes); assay type: in vivo, rats
# Procedure: The intraluminal thread (ILT) model is representative of clinical ischaemia reperfusion injury, it gives a focal ischemic lesion and is widely used in the pharmaceutical industry to test candidate compounds for neuroprotective efficacy. Fed, male Sprague Dawley rats (Charles Rivers, approximately 330 g) were anaesthetized with 2% halothane in 70/30 % N2O/O2 and the left middle cerebral artery occluded (MCAo) for 90 minutes using the ILT approach. The MCAo is achieved by the placement of a 3/0 nylon suture into the internal carotid artery and advancing it approximately 18 mm from the carotid bifurcation such that its tip is positioned approximately 1 mm beyond the origin of the MCA. […]
# Throughout the surgical period, rectal temperature was monitored and maintained at 37°C with a heated blanket and feedback rectal temperature probe and arterial blood gases were measured prior to and immediately post MCAo. […]
# The ischemic damage was assessed by conventional magnetic resonance imaging (T2, diffusion and proton density sequences) on day 1, 2 and 3 post MCAo. […]
# After the final MR analysis at 72 hour post ictus the rats were decapitated, the brains removed, stored fresh in cryo-protecting medium at -70°C prior to quantitative immunohistochemical analysis of infiltrating leukocytes (Figure 34). […]
# α2-adrenoceptors = assay: Competition of 3H-RS-79948-197 binding to membranes; conditions: 100 µM highest concentration tested
# Procedure: For α2-adrenoreceptor binding, membranes (A-213, RBI/Sigma)) are diluted into binding buffer (75 mM Tris pH 7.4, 12.5 mM MgCl2 and 2 mM EDTA). For example, 10 µl of membranes are diluted in 500 µl of binding buffer (i.e., 1:50 dilution), which is aliquoted into tubes. Cold competitor or test competitor is added, for example, 5 µl of 1 mM oxymetazoline (O-110, RBI/Sigma, 1 mM stock in MilliQ water). Radioligand is then added (^3H-RS-79948-197, TRK 1036, Amersham, 50 µCi in 250 µl, 2.1 µM at 95 Ci/mmol). For competition studies, 1 nM is used. A 100x stock (i.e., 100 nM) is made by diluting the commercial stock 1:20 in binding buffer, and 5 µl is added to every tube. Control tubes have radioligand but no membranes. The mixtures are vortexed, then spun very briefly. The mixtures are then incubated for 1 hour at 27°C in a water bath. The mixture is filtered through GF/C filters over a vacuum. Each filter is pre-soaked in polyethyleneimine (0.3% in water; add 1 ml of 10% stock (P-261; RBI/Sigma) to 33 ml of MilliQ water). The tubes are washed with 2-3 ml of wash buffer (50 mM Tris pH 7.4) and the wash filtered. The filters are then rinsed with 3 × 5 ml of wash buffer, air dried, placed in a scintillation vial and 4.5 ml of scintillant added. The activity on the filter is then determined.
compound,measurement,setting,value
CC[C@@H](C)[C@H]1NC(=O)[C@@H](CCC(N)=O)NC(=O)[C@H](N)CSSC[C@H](C(N)=O)NC(=O)[C@@H](CC(C)C)NC(=O)[C@@H](CC(=O)O)NC(=O)[C@H]2CCCN2C(=O)[C@@H](CCCCN)NC(=O)[C@@H](CCC(N)=O)NC(=O)[C@@H](CCCCN)NC(=O)[C@@H](Cc2c[nH]c3ccccc23)NC1=O (H-[dC][dQ][dI][dW][dK][dQ][dK][dP][dD][dL][dC]-NH2; disulfide 1-11),"percentages of CD3, CD4, and B220 cells in lung of normal mice (in words)","[1]; high dose, all routes of administration",significantly reduced
same,total number of cells isolated from the lungs of normal mice (in words),[1]; low dose (0.3 µg IV and/or 10 µg IT) compared to PBS,higher
same,reduction in the mean infarct volume,"focal ischemic lesion; 2 mg/kg bolus, then 0.5 mg/kg/hr i.v. for 72 hours, all time points, p < 0.0001",50%
same,neutrophil accumulation in the penumbra of the lesion (in words),"focal ischemic lesion; rat, in vivo",complete suppression
same,ED50 for competition of RS79943 binding to α2-adrenoceptors,α2-adrenoceptors,>100 µM
